Test results published in the supplement of paper PMC10307832.

Key:
Assay in all cases: relative viability (nuclei count vs DMSO), 5 days (fraction); higher = more cells survive
[1] = compound: Cc1cnc(-c2cnc(NCCNc3ccc(C#N)cn3)nc2-c2ccc(Cl)cc2Cl)[nH]1
In short: (§1)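 Hoechst staining, done together with fixation and permeabilisation, marked nuclei for 4× imaging and MetaXpress counting. This followed 5 days without medium change after lung cancer cell lines, kept overnight at 37 °C in 1536-well plates, were pinned with five library-drug doses (not always all listed) spaced by √10 on vehicle-anchored plates. Viability is the ratio of treated-well to vehicle-well nuclei, expressed as a median across plates. Plates passed only at control CV below 25% with at least one doubling.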

Docetaxel = compound: CC(=O)O[C@@]12CO[C@@H]1C[C@H](O)[C@@]1(C)C(=O)[C@H](O)C3=C(C)[C@@H](OC(=O)[C@H](O)[C@@H](NC(=O)OC(C)(C)C)c4ccccc4)C[C@@](O)([C@@H](OC(=O)c4ccccc4)[C@H]21)C3(C)C [Docetaxel]
In short: as §1

Tivozanib = compound: COc1cc2nccc(Oc3ccc(NC(=O)Nc4cc(C)on4)c(Cl)c3)c2cc1OC [Tivozanib]
In short: as §1

Cytarabine = compound: Nc1ccn([C@@H]2O[C@H](CO)[C@@H](O)[C@@H]2O)c(=O)n1 [Cytarabine]
In short: as §1

CPI-613 = compound: O=C(O)CCCCC(CCSCc1ccccc1)SCc1ccccc1 [CPI-613]
In short: as §1

JQ1 = compound: Cc1sc2c(c1C)C(c1ccc(Cl)cc1)=N[C@@H](CC(=O)OC(C)(C)C)c1nnc(C)n1-2 [JQ1]
In short: as §1

Pimozide = compound: O=c1[nH]c2ccccc2n1C1CCN(CCCC(c2ccc(F)cc2)c2ccc(F)cc2)CC1 [Pimozide]
In short: as §1

| Cell Line | relative viability ([1]; 0.08 µM) | relative viability ([1]; 0.253 µM) | relative viability ([1]; 0.8 µM) | relative viability ([1]; 2.53 µM) | relative viability (Docetaxel; 0.0002 µM) | relative viability (Docetaxel; 0.000632 µM) | relative viability (Docetaxel; 0.002 µM) | relative viability (Docetaxel; 0.006325 µM) | relative viability (Docetaxel; 0.02 µM) | relative viability (Tivozanib; 0.005 µM) | relative viability (Tivozanib; 0.01581 µM) | relative viability (Tivozanib; 0.05 µM) | relative viability (Tivozanib; 0.1581 µM) | relative viability (Tivozanib; 0.5 µM) | relative viability (Cytarabine; 0.005 µM) | relative viability (Cytarabine; 0.01581 µM) | relative viability (Cytarabine; 0.05 µM) | relative viability (Cytarabine; 0.1581 µM) | relative viability (Cytarabine; 0.5 µM) | relative viability (CPI-613; 5 µM) | relative viability (CPI-613; 15.81 µM) | relative viability (CPI-613; 50 µM) | relative viability (CPI-613; 158.11 µM) | relative viability (CPI-613; 500 µM) | relative viability (JQ1; 0.04 µM) | relative viability (JQ1; 0.1265 µM) | relative viability (JQ1; 0.4 µM) | relative viability (JQ1; 1.265 µM) | relative viability (JQ1; 4 µM) | relative viability (Pimozide; 0.08 µM) | relative viability (Pimozide; 0.253 µM) | relative viability (Pimozide; 0.8 µM) | relative viability (Pimozide; 2.53 µM) | relative viability (Pimozide; 8 µM) |
| --- | --- | --- | --- | --- | --- | --- | --- | --- | --- | --- | --- | --- | --- | --- | --- | --- | --- | --- | --- | --- | --- | --- | --- | --- | --- | --- | --- | --- | --- | --- | --- | --- | --- | --- |
| NCI-H1734 | 1.08 | 0.891 | 0.974 | 0.85 | 0.857 | 0.602 | 0.359 | 0.332 | 0.235 | 0.963 | 1.03 | 0.983 | 0.721 | 0.885 | 0.578 | 0.342 | 0.256 | 0.156 | 0.136 | 0.861 | 0.841 | 0.884 | 0.48 | 0.111 | 0.934 | 0.904 | 0.999 | 0.664 | 0.578 | 0.981 | 0.901 | 0.81 | 0.915 | 0.974 |
| SK-MES-1 | 1.09 | 0.947 | 1.02 | 1.1 | 1 | 0.872 | 0.418 | 0.267 | 0.172 | 0.997 | 0.993 | 1.02 | 1 | 0.959 | 0.875 | 0.712 | 0.355 | 0.258 | 0.221 | 0.967 | 0.904 | 0.98 | 0.531 | 0.477 | 0.937 | 0.717 | 0.603 | 0.311 | 0.25 | 0.942 | 0.998 | 0.979 | 1.01 | 0.985 |
| NCI-H727 | 0.952 | 0.864 | 0.943 | 0.86 | 0.772 | 0.892 | 0.726 | 0.548 | 0.413 | 0.8 | 0.85 | 1.01 | 0.702 | 0.917 | 0.785 | 0.766 | 0.788 | 0.402 | 0.382 | 0.831 | 0.825 | 0.916 | 0.654 | 0.309 | 0.923 | 0.988 | 0.413 | 0.465 | 0.409 | 0.849 | 0.864 | 0.998 | 0.879 | 0.93 |
| RERF-LC-KJ | 1.1 | 0.906 | 0.89 | 1 | 0.94 | 0.79 | 0.335 | 0.218 | 0.173 | 0.951 | 0.939 | 1.06 | 0.935 | 0.969 | 0.869 | 0.907 | 0.77 | 0.567 | 0.435 | 0.978 | 0.883 | 1.02 | 0.891 | 0.865 | 0.985 | 1.01 | 0.967 | 0.624 | 0.423 | 0.959 | 0.887 | 0.867 | 0.869 | 0.792 |
| HCC-366 | 1.04 | 0.928 | 0.968 | 0.925 | 0.946 | 0.631 | 0.14 | 0.0335 | 0.03 | 0.982 | 0.98 | 1.02 | 1.02 | 0.992 | 1.01 | 0.974 | 0.884 | 0.337 | 0.11 | 1.02 | 1.04 | 1.09 | 0.413 | 0.0138 | 1.05 | – | 1.08 | 0.693 | 0.325 | 0.978 | 1.01 | 0.967 | 0.992 | 0.972 |
| NCI-H596 | 0.995 | 0.972 | 0.754 | 1.07 | 0.89 | 0.89 | 0.632 | 0.518 | 0.273 | 0.926 | 0.963 | 1.13 | – | 0.99 | 0.956 | 0.841 | 0.798 | 0.689 | 0.551 | 0.956 | 0.902 | 1.04 | 0.781 | 0.0741 | 1.06 | 0.923 | 0.747 | 0.412 | 0.286 | 0.993 | 0.935 | 0.882 | 0.952 | 0.847 |
| ChaGo-K-1 | 0.987 | 0.854 | 1.02 | 0.939 | 1 | 0.691 | 0.636 | 0.349 | 0.196 | 0.979 | 0.956 | 0.97 | 0.909 | 0.921 | 0.687 | 0.681 | 0.509 | 0.383 | 0.283 | 0.918 | 0.981 | 0.975 | 0.705 | 0.411 | 0.93 | 0.845 | 0.956 | 0.901 | 0.743 | 1.08 | 0.95 | 0.975 | 0.96 | 0.961 |
| NCI-H2023 | 1.32 | 0.794 | 1.06 | 0.939 | 0.846 | 0.547 | 0.147 | 0.12 | 0.0751 | 0.966 | 0.951 | 0.927 | 0.847 | 0.923 | 0.542 | 0.282 | 0.172 | 0.107 | 0.0892 | 0.926 | 0.836 | 0.91 | 0.0969 | 0.0098 | 0.893 | 0.665 | 0.439 | 0.243 | 0.207 | 0.993 | 0.961 | 0.82 | 0.858 | 0.778 |
| LK-2 | 1.14 | 0.941 | 0.995 | 1.15 | 0.921 | 0.771 | 0.27 | 0.208 | 0.144 | 1.05 | 0.962 | 0.937 | 0.834 | 0.784 | 0.797 | 0.604 | 0.414 | 0.259 | 0.212 | 0.943 | 0.953 | 1.16 | 1 | 0.929 | 0.942 | 0.907 | 0.497 | 0.236 | 0.218 | 0.965 | 0.93 | 0.843 | 0.808 | 1.06 |
